Counter-ions that a name gives are not always drawn. Like-named read-outs stand apart in the source and are kept apart here. Each block holds one molecule with its values, some of them ahead of it.
Columns and labels:
[1] = target: T1, Mouse inducible nitric oxide synthase (miNOS) (Mus musculus, UniProt P29477); experiment: biochemical; conditions: for iNOS, % @ 10 μM: 10 μM compound; for IC50: read-out: iNOS
T1 construct: prepared from an extract of LPS-treated RAW 264.7 cells and partially purified by DEAE-Sepharose chromatography; endogenous in cells; host or cells: LPS-treated RAW 264.7 cells (mouse macrophage line)

[2] = target: T2, Rat brain constitutive nitric oxide synthase (rnNOS) (Rattus norvegicus, UniProt P29476); experiment: Citrulline assay for nitric oxide synthase (cNOS); format: biochemical
T2 construct: prepared from an extract of rat cerebellum and partially purified by DEAE-Sepharose chromatography; from tissue; host or cells: rat cerebellum
Experimental: Nitric oxide synthase activity was measured by monitoring the conversion of [3H]-arginine to [3H]-citrulline. Mouse inducible nitric oxide synthase (miNOS) was prepared from an extract of LPS-treated RAW 264.7 cells and partially purified by DEAE-Sepharose chromatography. Rat brain constitutive nitric oxide synthase (rnNOS) was prepared from an extract of rat cerebellum and partially purified by DEAE-Sepharose chromatography. Enzyme and inhibitors were incubated at 37° C. for 15 minutes in a reaction volume of […] with the following components added to start the reaction: 50 mM Tris (pH 7.6), 1 mg/ml bovine serum albumin, 1 mM DTT, 2 mM CaCl2, 10 mM FAD, 10 mM tetrahydrobiopterin, […] L-arginine containing L-[2,3-3H]-arginine at 300 cpm/pmole and 1 mM NADPH. For constitutive NOS, 50 nM calmodulin was also added. The reaction was terminated by addition of cold stop buffer containing 10 mM EGTA, 100 mM HEPES, pH 5.5 and 1 mM citrulline. [3H]-Citrulline was separated by chromatography on Dowex 50W X-8 cation exchange resin and radioactivity determined with a liquid scintillation counter.

[3] = tested on: intracellular iNOS in LPS-induced RAW 264.7 cells; experiment: Raw cell nitrite assay; format: cell-based; conditions: Mus musculus, read-out: Raw Cell IC50
Experimental: RAW 264.7 cells are plated to confluency on a 96-well tissue culture plate grown overnight (17h) in the presence of LPS to induce NOS. […] The media was removed from each well and the cells are washed twice with Krebs-Ringers-Hepes (25 mM, pH 7.4) with 2 mg/ml glucose. The cells are then placed on ice and incubated with […] of buffer containing L-arginine (30 mM) +/− inhibitors for 1 h. The assay is initiated by warming the plate to 37° C. in a water bath for 1 h. […] To terminate the cellular assay, the plate of cells is placed on ice and the nitrite-containing buffer removed and analyzed for nitrite using a previously published fluorescent determination for nitrite. […] All values are the average of triplicate wells and are compared to a background-subtracted induced set of cells (100% value).

[4] = tested on: LPS-induced increase in plasma nitrites; experiment: In vivo assay: endotoxin (LPS)-induced plasma nitrites in rat; conditions: Low Endotoxin in Rat Model
Experimental: Rats were treated with an intraperitoneal injection of 10 mg/kg of endotoxin (LPS) with or without oral administration of the nitric oxice synthase inhibitors. Plasma nitrites were measured 5 hours post-treatment.
IP is the abbreviation for 2-iminopiperidine. LPS is the abbreviation for endotoxin

[5] = printed as % only (inhibition not stated)
[6] = conversion of [3H]-arginine to [3H]-citrulline, 50 nM calmodulin added, read-out: cNOS IC50
[7] = conversion of [3H]-arginine to [3H]-citrulline, 37° C., 15 minutes
[8] = RAW264.7, nitrite production, RAW 264.7 cells, LPS-induced, 1 h at 37° C.
[9] = 100 μM compound, printed as % only (inhibition not stated)

T2 sequence (P29476 whole entry): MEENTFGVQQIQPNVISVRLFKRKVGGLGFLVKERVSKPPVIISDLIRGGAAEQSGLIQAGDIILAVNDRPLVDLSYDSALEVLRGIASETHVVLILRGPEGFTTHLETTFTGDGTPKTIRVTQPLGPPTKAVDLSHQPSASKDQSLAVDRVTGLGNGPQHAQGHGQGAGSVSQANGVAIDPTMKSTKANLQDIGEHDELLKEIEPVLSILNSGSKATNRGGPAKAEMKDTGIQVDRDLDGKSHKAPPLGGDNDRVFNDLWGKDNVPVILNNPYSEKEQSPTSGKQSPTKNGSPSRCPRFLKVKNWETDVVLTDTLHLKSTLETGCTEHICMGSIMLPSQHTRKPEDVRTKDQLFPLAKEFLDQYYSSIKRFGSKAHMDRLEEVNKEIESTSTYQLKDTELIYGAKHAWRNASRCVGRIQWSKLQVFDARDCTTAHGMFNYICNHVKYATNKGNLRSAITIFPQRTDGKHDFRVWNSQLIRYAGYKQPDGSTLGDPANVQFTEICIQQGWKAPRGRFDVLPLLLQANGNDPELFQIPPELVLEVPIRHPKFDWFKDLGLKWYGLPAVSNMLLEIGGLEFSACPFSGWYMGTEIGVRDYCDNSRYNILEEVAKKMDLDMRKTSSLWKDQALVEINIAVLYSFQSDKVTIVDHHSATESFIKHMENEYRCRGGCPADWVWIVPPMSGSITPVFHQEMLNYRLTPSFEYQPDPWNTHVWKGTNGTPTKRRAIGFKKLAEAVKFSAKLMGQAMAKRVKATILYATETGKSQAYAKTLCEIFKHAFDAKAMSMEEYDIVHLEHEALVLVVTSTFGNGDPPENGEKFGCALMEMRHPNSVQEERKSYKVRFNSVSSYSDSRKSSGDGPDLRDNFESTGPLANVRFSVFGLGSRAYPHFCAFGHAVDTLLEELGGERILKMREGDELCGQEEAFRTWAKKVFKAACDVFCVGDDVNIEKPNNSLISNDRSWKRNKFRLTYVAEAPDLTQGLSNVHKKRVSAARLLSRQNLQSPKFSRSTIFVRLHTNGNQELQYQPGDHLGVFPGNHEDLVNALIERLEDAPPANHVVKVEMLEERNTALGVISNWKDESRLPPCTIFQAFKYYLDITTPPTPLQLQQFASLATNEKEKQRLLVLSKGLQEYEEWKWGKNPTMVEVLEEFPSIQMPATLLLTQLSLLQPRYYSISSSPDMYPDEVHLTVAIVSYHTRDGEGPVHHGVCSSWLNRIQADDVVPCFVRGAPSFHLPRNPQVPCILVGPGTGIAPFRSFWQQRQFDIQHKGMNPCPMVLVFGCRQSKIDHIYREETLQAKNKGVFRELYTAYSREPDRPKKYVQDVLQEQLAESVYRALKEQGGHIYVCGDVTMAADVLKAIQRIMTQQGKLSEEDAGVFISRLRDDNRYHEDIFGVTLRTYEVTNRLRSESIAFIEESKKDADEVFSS
T1 sequence (P29477 whole entry): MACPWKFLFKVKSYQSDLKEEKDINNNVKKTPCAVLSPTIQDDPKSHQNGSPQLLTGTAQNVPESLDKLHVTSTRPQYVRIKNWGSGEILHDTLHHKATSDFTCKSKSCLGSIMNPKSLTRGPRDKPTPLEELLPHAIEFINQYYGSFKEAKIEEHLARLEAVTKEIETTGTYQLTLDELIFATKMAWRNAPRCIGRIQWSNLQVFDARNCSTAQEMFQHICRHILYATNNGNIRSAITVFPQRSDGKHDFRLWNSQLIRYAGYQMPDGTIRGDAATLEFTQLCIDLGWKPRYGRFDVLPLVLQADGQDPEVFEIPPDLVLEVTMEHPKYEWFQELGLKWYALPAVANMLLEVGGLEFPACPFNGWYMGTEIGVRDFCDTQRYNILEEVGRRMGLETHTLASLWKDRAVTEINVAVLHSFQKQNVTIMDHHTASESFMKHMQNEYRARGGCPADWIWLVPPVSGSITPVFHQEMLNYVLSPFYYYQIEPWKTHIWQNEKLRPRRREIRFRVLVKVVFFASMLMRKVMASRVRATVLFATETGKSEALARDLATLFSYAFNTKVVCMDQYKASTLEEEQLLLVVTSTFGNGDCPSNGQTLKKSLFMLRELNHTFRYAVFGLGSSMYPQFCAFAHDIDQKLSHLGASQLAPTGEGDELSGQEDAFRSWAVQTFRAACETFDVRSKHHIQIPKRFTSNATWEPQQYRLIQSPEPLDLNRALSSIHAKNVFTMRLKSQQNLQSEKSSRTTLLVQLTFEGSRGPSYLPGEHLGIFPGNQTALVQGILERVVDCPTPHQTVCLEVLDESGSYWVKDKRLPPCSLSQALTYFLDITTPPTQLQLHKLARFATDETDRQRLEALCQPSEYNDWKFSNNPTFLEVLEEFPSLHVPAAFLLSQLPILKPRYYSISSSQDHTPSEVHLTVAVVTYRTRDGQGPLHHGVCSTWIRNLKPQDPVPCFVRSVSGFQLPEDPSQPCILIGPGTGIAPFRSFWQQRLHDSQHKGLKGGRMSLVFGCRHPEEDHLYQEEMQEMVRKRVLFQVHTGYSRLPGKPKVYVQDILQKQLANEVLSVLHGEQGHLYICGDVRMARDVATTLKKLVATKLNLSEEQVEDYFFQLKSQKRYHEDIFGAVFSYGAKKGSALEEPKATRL

Structure (SMILES): Cl.N=C1CCC2=C(CCCC2)N1 [Example 3, 3,4,5,6,7,8-hexahydro-2[1H]-quinolineimine hydroiodide]
melting point: 150 to 155 °C
iNOS, % @ 10 μM [1, 5]: 43% * 10 μM

Structure (SMILES): Cl.N=C1CCCCC(C2CCCCC2)N1 (centres unmarked) [Example 96, 7-cyclohexyl-hexahydro-1H-azepin-2-imine, monohydrochloride]
IC50 [2]: 1400 µM
IC50 [1, 7]: 9.3 µM
ED50 ([4]; po, administered p.o.): 3.8 mg/kg

Structure (SMILES): NC1=NCCCS1 [Example 17, 2-Imino-3-thiapiperidine hydrochloride]
IC50 [2]: 2.7 µM
IC50 [1, 7]: 0.8 µM
IC50 ([3]; RAW264.7, 1 h): 28 µM

Structure (SMILES): N=C1N[C@H]2[C@H](CS[C@H]2CCCCC(=O)O)N1 [Example 21, 2-Iminobiotin]
IC50 [2, 6]: 500 µM
IC50 [1, 7]: 40 µM
IC50 ([3]; RAW264.7, 1 h): > 1000 µM

Structure (SMILES): CN1CCCCCC1=N (as salt: hydroiodid)
melting point: 137 to 139 °C

Structure (SMILES): CN1CCCCC1=N (as salt: hydroiodid)
melting point: 157 to 158 °C

Structure (SMILES): N=C1NCCN1 [Example 15, 2-Iminoimidazolidine]
iNOS, % @ 10 μM [1, 5]: 8% @ 10 μM

Structure (SMILES): CN=C1CCCCCN1 (as salt: hydroiodid)
melting point: 169 to 171 °C

Structure (SMILES): CCCC1CCCCC(=N)N1.Cl (centres unmarked) [Example 114, hexahydro-7-propyl-1H-azepin-2-imine, monohydrochloride]
IC50 [2]: 7.8 µM
ED50 ([4]; po, administered p.o.): 3.4 mg/kg
IC50 ([3]; RAW264.7, 1 h): 0.55 µM

Structure (SMILES): Cl.N=C1CCc2ccccc2N1 [Example 164, 1,2,3,4-tetrahydroquinolin-2-imine, monohydrochloride]
cNOS, % @ 100 μM [2, 9]: 74% @ 100 μM
iNOS, % @ 100 μM [1, 9]: 60% @ 100 μM

Structure (SMILES): C=CCC1CCCCC(=N)N1.Cl (centres unmarked) [Example 108, hexahydro-7-(2-propenyl)-1H-azepin-2-imine, monohydrochloride]
IC50 [2]: 19 µM
ED50 ([4]; po, administered p.o.): 3.7 mg/kg
IC50 ([3]; RAW264.7, 1 h): 0.57 µM

Structure (SMILES): CC1CCNC1=N (centres unmarked) [Example 4, 2-Imino-3-methyltetramethyleneimine hydriodide]
IC50 [2]: 2.4 µM
IC50 [1, 7]: 4.6 µM
IC50 ([3]; RAW264.7, 1 h): 14 µM

Structure (SMILES): Cl.N=C1NC[C@H]2CCCC[C@H]12 (relative stereo) [Example 173, (trans)-octahydro-2H-isoindol-1-imine, monohydrochloride]
iNOS, % @ 10 μM [1, 5]: 42% @ 10 μM

Structure (SMILES): NC1=NCCC1 [Example 12, 2-iminopyrrolidine hydrochloride]
IC50 [2]: 32 µM
IC50 [1]: 5.1 µM
IC50 ([3]; RAW264.7, 1 h): 1.8 µM

Structure (SMILES): CN1CCCNC1=N [Example 23, 1-Methyl-2-iminotetrahydropyrimidine]
iNOS, % @ 10 μM [1, 5]: 41% @ 10 μM

Structure (SMILES): CCC1NC(=N)CC1C (centres unmarked) [Example 217, 5-ethyl-4-methylpyrrolidin-2-imine, monohydrochloride]
IC50 [2]: 1.6 µM
IC50 [1, 7]: 0.17 µM
IC50 ([3]; RAW264.7, 1 h): 0.25 µM

Structure (SMILES): CCC(CC)CC1CCCCC(=N)N1.Cl (centres unmarked) [Example 198, 7-(2-ethylbutyl)hexahydro-1H-azepin-2-imine, monohydrochloride]
IC50 [2]: 652 µM
IC50 [1, 7]: 2.1 µM
ED50 ([4]; determined using iv infusion): 5 mg/kg
IC50 ([3]; RAW264.7, 1 h): 3.3 µM

Structure (SMILES): NC1=NCCCN1 [Example 14, 2-Iminotetrahydropyrimidine hemihydrosulfate]
IC50 [2, 6]: 23 µM
IC50 ([3]; RAW264.7, 1 h): > 1000 µM

Structure (SMILES): NC1=NCCCCCC1 [Example 1, 2-Imino-heptamethyleneimine hydrochloride]
IC50 [2]: 13.3 µM
IC50 [1, 7]: 2.1 µM
IC50 ([3]; RAW264.7, 1 h): 60 µM

Structure (SMILES): CC1CCNC(=N)CC1 (centres unmarked) [Example 70, hexahydro-5-methyl-1H-azepin-2-imine, monohydrochloride]
IC50 [2]: 32 µM
IC50 [1, 7]: 5.9 µM
IC50 ([3]; RAW264.7, 1 h): 24 µM

Structure (SMILES): NC1=NC(c2ccccc2)CCCC1 (centres unmarked) [Example 192, hexahydro-7-phenyl-1H-azepin-2-imine, monohydrochloride]
IC50 [2]: 179 µM
IC50 [1]: 12 µM
IC50 ([3]; RAW264.7, 1 h): 31 µM

Structure (SMILES): C=CCC1CCCCNC1=N (centres unmarked) [Example 107, hexahydro-3-(2-propenyl)-1H-azepin-2-imine, monohydrochloride]
IC50 [2]: 342 µM
IC50 [1, 7]: 3.8 µM
IC50 ([3]; RAW264.7, 1 h): 15 µM

Structure (SMILES): CCC1CCCCNC1=N (centres unmarked) [Example 60, 3-ethyl-hexahydro-1H-azepin-2-imine, monohydrochloride]
IC50 [2]: 32 µM
IC50 ([3]; RAW264.7, 1 h): 3.5 µM

Structure (SMILES): N=C1NCCO1 [Example 19, 2-Iminooxazolidine]
iNOS, % @ 10 μM [1, 5]: 42% @ 10 μM

Structure (SMILES): CC1(C)CCN=C(N)C1 [Example 170, 4,4-dimethylpiperidin-2-imine, monohydrochloride]
IC50 [2]: 53 µM

Structure (SMILES): CCCCC1CCCCC(=N)N1.Cl (centres unmarked) [Example 188, 7-butylhexahydro-1H-azepin-2-imine, monohydrochloride]
IC50 [2]: 106 µM
IC50 [1, 7]: 0.55 µM
ED50 ([4]; po, administered p.o.): 3.7 mg/kg
IC50 ([3]; RAW264.7, 1 h): 0.65 µM

Structure (SMILES): N=C1CCCCCCCN1 [Example 2, 2-Imino-octamethyleneimine hydrochloride]
IC50 [2]: 9.9 µM
IC50 [1, 7]: 2.2 µM
IC50 ([3]; RAW264.7, 1 h): > 1000 µM

Structure (SMILES): NC1=NCCCO1 [Example 18, hydrochloride]
IC50 [2]: 6 µM
IC50 [1, 7]: 0.8 µM
IC50 ([3]; RAW264.7, 1 h): 6 µM

The remaining lines, values ahead:

IC50 [2, 6]: 0.127 µM
IC50 [1, 7]: 0.043 µM
Structure (SMILES): CC1CC(N)=NC(C)C1 (centres unmarked) [Example 10, 2-imino-4,6-dimethylpiperidine acetate]

IC50 [2]: 2.01 µM
IC50 [1, 7]: 1.5 µM
Structure (SMILES): CC1CCCN=C1N (centres unmarked) [Example 9, 2-imino-3-methylpiperidine acetate]

IC50 [2]: 2 µM
IC50 [1, 7]: 0.6 µM
IC50 ([3]; RAW264.7, 1 h): 14 µM
Structure (SMILES): N=C1CCCCN1 [Example 13, 2-Iminopiperidine hydrochloride]

melting point: 158 to 160 °C
Structure (SMILES): CC1CCC(O)C(=N)N1 (centres unmarked) (as salt: acetate) [Example 277, 3-hydroxy-2-imino-6-methylpiperidine acetate]

IC50 [2]: 2.77 µM
IC50 [1, 7]: 0.92 µM
Structure (SMILES): N=C1NCCCC1O (centres unmarked) [Example 11, 2-Imino-3-hydroxypiperidine acetate]

IC50 [2]: 46 µM
IC50 [1, 7]: 7 µM
Structure (SMILES): C[C@@H]1CCCC(N)=NC1 [Example 90, hexahydro-6R-methyl-1H-azepin-2-imine, monohydrochloride]

melting point: 160 to 162 °C
IC50 [2]: 0.99 µM
IC50 [1, 7]: 0.16 µM
Structure (SMILES): CC1CCCC(=N)N1.Cl (centres unmarked) [Example 8, 2-Imino-6-methylpiperidine hydrochloride]

IC50 [2]: 1300 µM
IC50 [1, 7]: 30 µM
IC50 [3, 8]: > 1000 µM
Structure (SMILES): CCOC(=O)CCCC[C@@H]1SC[C@@H]2NC(=N)NC21 (some centres unmarked) [Example 22, 2-Iminobiotin ethyl ester]

melting point: 175 to 178 °C
Structure (SMILES): CC1CCC(=N)NC1 (centres unmarked) (as salt: acetate) [Example 7, 2-Imino-5-methylpiperidine acetate]

IC50 [2]: 5 µM
IC50 [1, 7]: 1 µM
IC50 [3, 8]: 160 µM
Structure (SMILES): N=C1NCC(CCl)O1 (centres unmarked) [Example 20, 5-Chloromethyl-2-iminooxazolidine]

melting point: 163 to 166 °C
Structure (SMILES): CC1CC(=N)NC(C)C1 (centres unmarked) (as salt: acetate) [Example 10, 2-imino-4,6-dimethylpiperidine acetate]

IC50 [2]: 9.4 µM
IC50 [1, 7]: 3.2 µM
IC50 [3, 8]: 18 µM
Structure (SMILES): CC1CCC(N)=N1 (centres unmarked) [Example 5, 2-Imino-5-methyltetramethyleneimine hydriodide]

melting point: 88 to 100 °C
Structure (SMILES): CC1CCCNC1=N (centres unmarked) (as salt: acetate) [Example 9, 2-imino-3-methylpiperidine acetate]

IC50 [3, 8]: 4.3 µM
Structure (SMILES): N=C1NCCS1 [Example 16, 2-Iminothiazolidine hydrochloride]

melting point: 128 to 130 °C
Structure (SMILES): N=C1NCCCC1O (centres unmarked) (as salt: acetate) [Example 11, 2-Imino-3-hydroxypiperidine acetate]

IC50 [2]: 13.3 µM
IC50 [1, 7]: 2 µM
Structure (SMILES): CC1CCC(N)=NC1 (centres unmarked) [Example 7, 2-Imino-5-methylpiperidine acetate]

melting point: 230 to 234 °C
Structure (SMILES): Cl.N=C1CC(C(=O)O)CCN1 (centres unmarked)

IC50 [1]: 0.055 µM
Structure (SMILES): CC1CCN=C(N)C1 (centres unmarked) [Example 6, 2-Imino-4-methylpiperidine acetate]

IC50 [2]: 14 µM
IC50 [1, 7]: 1.4 µM
Structure (SMILES): CC1CN=C(N)C1 (centres unmarked) [Example 182, 4-methylpyrrolidin-2-imine, monohydrochloride]

Source: patent US6448286B1, “Imino pyrrolidine derivatives useful as nitric oxide synthase inhibitors” (G.D. Searle & Co., priority 1993, dated 2002)
